Test results published in patent US11414374B2, “Crystalline forms of vilanterol trifenatate and processes for their preparation” (Hovione Scientia Limited, priority 2017, dated 2022).
One block for each compound: values may come before it.

Legend:
Type in all cases: physicochemical
[1] = Dynamic vapor sorption (DVS) analysis / hygroscopicity (EP 7.0 classification); settings: for Hygroscopically (DVS): DVS hygroscopicity class; for XRPD after DVS: resulting form after DVS; for Change In Mass (%) Desorption / Change In Mass (%) Hysteresis / Change In Mass (%) Sorption: DVS, 25° C.
Description: The hygroscopicity value is directly obtained from the sorption row at 80% RH, cycle 1.
Hygroscopicity of a sample of each of new form II and comparative form I was determined using the protocol provided below in conditions of 80% RH and 25° C.
The sample was subjected to DVS measuring using SMS-DVS intrinsic. The kinetic moisture sorption measurement was performed at 25° C. and in a RH % range described in the following: • From 40% RH to 90% RH • Form 90% RH to 0% RH • From 0% RH to 90% RH • From 90% RH to 0% RH
The sample was analyzed by XRPD after the analysis.
The hygroscopicity was calculated using the following equation: % Weight Change=[(W2−W1)/W1]*100 W1: weight of sample at the start of the experiment (25° C. and 40% RH) W2: weight of sample at 25° C. and 80% RH in the first absorption cycle

[2] = TGA / TGA-EGA thermogravimetric analysis with evolved gas analysis; settings: for EGA: evolved solvent identified; for TGA overall weight loss: overall loss of the named solvent(s)
Description: The analysis was carried out using the Mettler Toledo TGA/DSC1. The sample was weighed in an aluminum pan hermetically sealed with an aluminum pierced cover. The analysis was performed heating the sample from 25° C. to 320° C. at 10° C./min. TGA-FTIR coupled with Thermo Nicoled is 10 spectometer. The analysis was carried out using the mettler toledo TGA/DSC1. The sample was weighed in an aluminum pan hermetically sealed with an aluminum pierced cover. The analysis was performed heating the sample from 25° C. to 320° C. at 10° C./min. The evolved gas is compared with ft-ir spectra database for identification.

[3] = Stability test (exposed sample 16 h), form by XRPD; settings: resulting form
[4] = Stability test (sealed vial 18 h), form by XRPD; settings: resulting form
[5] = Stability test (60° C. 75% RH-3 d), form by XRPD; settings: resulting form
[6] = DSC - differential scanning calorimetry; settings: for DSC (onset) endo. solvent loss + melting: endothermic event: solvent loss + melting (Form 6: + Form 2 melting; Form 14: + Form 3 melting); for DSC (onset) endo. solvent loss: endothermic event: solvent loss; for DSC (onset) endo. degradation: endothermic event: degradation; for DSC (onset) endo. Form 1 melting: endothermic event: Form 1 melting
Description: The analysis was carried out using a DSC Q200 TA instruments equipped with a refrigerator cooling system (RCS40) and autosampler. The sample was weighed in an aluminum hermetic pan with pinhole. The analysis was performed heating the sample from 25° C. to 350° C. at 10° C./min.

[7] = Storage stability of exposed powder at 25° C. and 60% RH for seven days, compared by XRPD; settings: for Stability test (25° C. 60% RH-7 d): resulting form
Description: Approximately 30 mg of exposed powder of comparative form 1 and new forms II and III, respectively, were stored at 25′C and 60% RH for seven days. Each powder was then analyzed by XRPD and its diffraction pattern was compared with that of untreated sample.

XRPD after Grinding = settings: resulting form after grinding
[8] = Micronization in fluid energy jet mill: particle size distribution and XRPD of product
Excerpt: Vilanterol trifenatate form II is fed to a fluid energy jet mill at 10-100 g/h, operated with N2 at a pressure of 1 to 8 bar for the venturi and a pressure of 1 to 8 bar for the ring.

[9] = Visual solubility in differing solvents (European Pharmacopeia 6.0 section 5.11)
Description: Visual solubility of certain forms (compounds) in differing solvents was assessed according to the procedure described in the European Pharmacopeia 6.0 section 5.11. p. The compound was shaken vigorously for 1 min and placed in a constant temperature device for 15 min at 25.0±0.5° C. If the compound was not completely dissolved, the shaking was repeated for 1 min and the tube placed in a constant temperature device for 15 min. 50 mg of compound was weighed in a stoppered tube, 0.05 mL of the solvent added and the Dissolving Procedure (see above) followed. If the compound was completely dissolved, it is very soluble. If the compound was not completely dissolved, a further 0.45 mL of the solvent was added and the Dissolving Procedure (see above) followed. […] If the compound was still not completely dissolved, still further 1.0 mL of the solvent was added and the Dissolving Procedure (see above) followed. If the compound was completely dissolved, it is soluble. If the compound was still not completely dissolved, another 3.5 mL of the solvent was added and the Dissolving Procedure (see above) followed. […] If the compound was still not completely dissolved, the compound is slightly soluble or very slightly soluble. In this case, and the suspension was heated up to the boiling point (max 80° C.) under stirring to verify the solubility at high temperature. The hot solution was afterwards cooled to room temperature to observe whether the compound precipitates. If the compound at room temperature was completely dissolved, it is soluble at high temperature. [table]

Structure (SMILES): OCc1cc([C@@H](O)CNCCCCCCOCCOCc2c(Cl)cccc2Cl)ccc1O [form VI, vilanterol trifenatate]
Hygroscopically (DVS) ([1]; listed as Form 6): Slightly hygroscopic (Increase in mass is less than 2% and equal to or greater than 0.2%) | XRPD after DVS ([1]; listed as Form 6): Form 6 | EGA ([2]; listed as Form 6): 2-Propanol | TGA overall weight loss ([2]; listed as Form 6): One weight loss of 73% w/w | Stability test (exposed sample 16 h) ([3]; listed as Form 6): Form 12 | Stability test (sealed vial 18 h) ([4]; listed as Form 6): Form 6 | Stability test (60° C. 75% RH-3 d) ([5]; listed as Form 6): Amorphous | DSC (onset) endo. solvent loss + melting ([6]; listed as Form 6): endo. 80 °C solvent loss + | DSC (onset) endo. solvent loss ([6]; listed as Form 6): endo. 65 °C solvent loss | Stability test (25° C. 60% RH-7 d) ([7]; listed as Form 6): Form 1 (almost

Structure (SMILES): OCc1cc([C@@H](O)CNCCCCCCOCCOCc2c(Cl)cccc2Cl)ccc1O [form X, vilanterol trifenatate]
Hygroscopically (DVS) ([1]; listed as Form 10): Slightly | XRPD after DVS ([1]; listed as Form 10): Form 1 | XRPD after Grinding (XRPD after Grinding; listed as Form 10): Amorphous | EGA ([2]; listed as Form 10): Ethanol | Stability test (exposed sample 16 h) ([3]; listed as Form 10): Form 10 | Stability test (sealed vial 18 h) ([4]; listed as Form 10): Form 10 | Stability test (60° C. 75% RH-3 d) ([5]; listed as Form 10): Form 1 | DSC (onset) endo. degradation ([6]; listed as Form 10): endo. 188 °C | DSC (onset) endo. solvent loss + melting ([6]; listed as Form 10): endo. 69 °C solvent | Stability test (25° C. 60% RH-7 d) ([7]; listed as Form 10): Form 1

Now from value to compound, other results behind:

Hygroscopically (DVS) ([1]; listed as Form 12): Slightly | XRPD after DVS ([1]; listed as Form 12): Form 1 | XRPD after Grinding (XRPD after Grinding; listed as Form 12): Amorphous (few | EGA ([2]; listed as Form 12): Water and 1.2- | TGA overall weight loss ([2]; listed as Form 12): One loss of 61.6% w/w | Stability test (exposed sample 16 h) ([3]; listed as Form 12): Form 12 | Stability test (sealed vial 18 h) ([4]; listed as Form 12): Form 12 | Stability test (60° C. 75% RH-3 d) ([5]; listed as Form 12): Form 1 (almost | DSC (onset) endo. Form 1 melting ([6]; listed as Form 12): endo. 134 °C Form 1 | DSC (onset) endo. degradation ([6]; listed as Form 12): endo. 189 °C | DSC (onset) endo. solvent loss ([6]; listed as Form 12): endo. 21 °C solvent loss | Stability test (25° C. 60% RH-7 d) ([7]; listed as Form 12): Form 1 (almost
Structure (SMILES): OCc1cc([C@@H](O)CNCCCCCCOCCOCc2c(Cl)cccc2Cl)ccc1O [form XII, vilanterol trifenatate]

XRPD after DVS ([1]; listed as Form 11): Ascribable to Form 11 | XRPD after Grinding (XRPD after Grinding; listed as Form 11): Form 12 | EGA ([2]; listed as Form 11): Cyclohexane and 2- | TGA overall weight loss ([2]; listed as Form 11): loss of 51% w/w | Stability test (exposed sample 16 h) ([3]; listed as Form 11): Form 11 | Stability test (sealed vial 18 h) ([4]; listed as Form 11): Form 11 | Stability test (60° C. 75% RH-3 d) ([5]; listed as Form 11): Form 1 (almost | DSC (onset) endo. Form 1 melting ([6]; listed as Form 11): endo. 135 °C Form 1 | DSC (onset) endo. degradation ([6]; listed as Form 11): endo. 188.6 °C | DSC (onset) endo. solvent loss ([6]; listed as Form 11): endo. 50-100 °C solvent loss | Stability test (25° C. 60% RH-7 d) ([7]; listed as Form 11): Form 1 (start
Structure (SMILES): OCc1cc([C@@H](O)CNCCCCCCOCCOCc2c(Cl)cccc2Cl)ccc1O [form XI, vilanterol trifenatate]
Hygroscopically (DVS) ([1]; listed as Form 11): Slightly hygroscopic (Increase in mass is less than 2% and equal to or greater than 0.2%)

hygroscopicity classification according to the European Pharmacopoeia (EP, version 7.0) ([1]; 80% RH and 25° C.): slightly hygroscopic | mass increase by dynamic vapor sorption analysis (hygroscopicity) ([1]; 80% RH and 25° C., first sorption cycle, relative to 40% RH): 1.1% | Change In Mass (%) Desorption ([1]; Cycle 1, target RH 0.0%): −0.017% | Change In Mass (%) Desorption ([1]; Cycle 1, target RH 10.0%): 0.002% | Change In Mass (%) Desorption ([1]; Cycle 1, target RH 20.0%): 0.015% | Change In Mass (%) Desorption ([1]; Cycle 1, target RH 30.0%): 0.024% | Change In Mass (%) Desorption ([1]; Cycle 1, target RH 40.0%): 0.035% | Change In Mass (%) Hysteresis ([1]; Cycle 1, target RH 40.0%): 0.035% | Change In Mass (%) Sorption ([1]; Cycle 1, target RH 40.0%): 0.000% | Change In Mass (%) Desorption ([1]; Cycle 1, target RH 50.0%): 0.280% | Change In Mass (%) Hysteresis ([1]; Cycle 1, target RH 50.0%): 0.271% | Change In Mass (%) Sorption ([1]; Cycle 1, target RH 50.0%): 0.008% | Change In Mass (%) Desorption ([1]; Cycle 1, target RH 60.0%): 0.421% | Change In Mass (%) Hysteresis ([1]; Cycle 1, target RH 60.0%): 0.399% | Change In Mass (%) Sorption ([1]; Cycle 1, target RH 60.0%): 0.022% | Change In Mass (%) Desorption ([1]; Cycle 1, target RH 70.0%): 0.567% | Change In Mass (%) Hysteresis ([1]; Cycle 1, target RH 70.0%): 0.530% | Change In Mass (%) Sorption ([1]; Cycle 1, target RH 70.0%): 0.037% | Change In Mass (%) Desorption ([1]; Cycle 1, target RH 80.0%): 1.144% | Change In Mass (%) Hysteresis ([1]; Cycle 1, target RH 80.0%): 0.061% | Change In Mass (%) Sorption ([1]; Cycle 1, target RH 80.0%): 1.083% | Change In Mass (%) Desorption ([1]; Cycle 1, target RH 90.0%): 1.857% | Change In Mass (%) Sorption ([1]; Cycle 1, target RH 90.0%): 1.857% | Change In Mass (%) Sorption ([1]; Cycle 2, target RH 0.0%): −0.017% | Change In Mass (%) Sorption ([1]; Cycle 2, target RH 10.0%): −0.003% | Change In Mass (%) Sorption ([1]; Cycle 2, target RH 20.0%): 0.008% | Change In Mass (%) Sorption ([1]; Cycle 2, target RH 30.0%): 0.016% | Change In Mass (%) Sorption ([1]; Cycle 2, target RH 40.0%): 0.025% | Change In Mass (%) Sorption ([1]; Cycle 2, target RH 50.0%): 0.033% | Change In Mass (%) Sorption ([1]; Cycle 2, target RH 60.0%): 0.041% | Change In Mass (%) Sorption ([1]; Cycle 2, target RH 70.0%): 0.056% | Change In Mass (%) Sorption ([1]; Cycle 2, target RH 80.0%): 1.111% | Change In Mass (%) Sorption ([1]; Cycle 2, target RH 90.0%): 1.952% | stability / XRPD pattern after DVS analysis ([1]; XRPD after DVS analysis, compared with untreated sample): no significant modifications | particle size distribution Dv90 after micronization ([8]; fluid energy jet mill, N2): below 10 μm | visual solubility in water ([9]; water at 75° C.): insoluble
Structure (SMILES): OCc1cc([C@@H](O)CNCCCCCCOCCOCc2c(Cl)cccc2Cl)ccc1O [form III, vilanterol trifenatate]
XRPD of micronized product versus starting material ([8]; after fluid energy jet milling): identical to the one of the starting material | visual solubility in tetrahydrofuran (THF) ([9]; THF at 25° C.): sparingly soluble (another 3.5 mL of the solvent was added and the Dissolving Procedure (see above) followed. If the compound was completely dissolved, it is sparingly soluble.) | modifications in XRPD pattern after storage (structural stability) ([7]; 60% RH and 25° C. for 7 days, exposed powder): No significant modifications in XRPD pattern
